{"source": "patent US9688624B2", "about": "“DP2 antagonist and uses thereof” (Brickell Biotech, Inc., priority 2010, dated 2017)", "key": {"CYP3A4": {"biological_target": "CYP3A4 (Homo sapiens (Human), UniProt P08684)", "settings": "human hepatocytes, 10 μM"}, "DP2 receptor [1]": {"biological_target": "T1, DP2 receptor (Homo sapiens (Human), UniProt Q9Y5Y4)", "T1 sequence (Q9Y5Y4 whole entry)": "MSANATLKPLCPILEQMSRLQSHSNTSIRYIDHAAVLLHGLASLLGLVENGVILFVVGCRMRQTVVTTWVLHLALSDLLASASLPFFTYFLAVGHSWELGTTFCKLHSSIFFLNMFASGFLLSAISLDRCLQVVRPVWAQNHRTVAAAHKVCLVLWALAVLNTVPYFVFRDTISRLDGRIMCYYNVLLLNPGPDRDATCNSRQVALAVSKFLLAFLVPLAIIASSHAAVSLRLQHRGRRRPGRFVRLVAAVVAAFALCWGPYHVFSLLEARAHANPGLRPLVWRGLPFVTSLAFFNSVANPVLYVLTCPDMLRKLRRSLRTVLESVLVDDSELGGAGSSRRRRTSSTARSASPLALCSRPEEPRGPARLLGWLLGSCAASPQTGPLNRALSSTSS", "assay": "In vitro whole blood eosinophil shape change (ESC) assay, PGD2-induced", "format": "cell-based", "experimental": "Example 17: In Vitro Whole Blood Esoinophil Shape Change Assay\nCompound 1 was evaluated in a whole blood assay of eosinophil shape change (ESC) to determine the ability of Compound 1 to antagonize a PGD2-stimulated functional response in the context of whole blood.\nBlood is drawn from consenting human volunteers in EDTA vacutainer tubes and used within 1 hr of draw. A 98 μl aliquot of blood is mixed with 2 μl of Compound 1 (in 50% DMSO) in 1.2 ml polypropylene tubes. The blood is vortexed and incubated at 37° C. for 5 minutes. 5 μl of 1 μM PGD2 in PBS is added for a final concentration of 50 nM and the tubes briefly vortexed. The reactions are incubated for exactly 5 minutes at 37° C. and then terminated by placing the tubes on ice and immediately adding 250 μl of ice-cold 1:4 diluted Cytofix (BD Biosciences). The reactions are transferred to […] polystyrene round bottom tubes and the red blood cells lysed by the addition of 3 ml ammonium chloride lysing solution (150 mM NH4C1, 10 mM KHCO3, 0.1 mM EDTA disodium salt) and incubation at room temperature for 15 minutes. The cells are pelleted by spinning at 1300 rpm for 5 minutes at 4° C. and washed once with 3 ml ice-cold PBS. The cells are resuspended in 0.2 ml of ice-cold 1:4 diluted Cytofix (BD Biosciences) and analyzed on a FACSCalibur (BD Biosciences) within 2 hours. Eosinophils were gated on the basis of autofluorescence in the FL2 channel and shape change on 500 eosinophils was assayed by forward scatter and side scatter analysis. The specific change in shape induced by PGD2 was calculated as the difference between the percentage of high forward scatter eosinophils in the presence and absence of PGD2. IC50s were determined using Graphpad Prism® analysis of drug titration curves."}, "DP2 receptor [2]": {"biological_target": "T1, DP2 receptor", "assay": "In vitro DP2/CRTH2 radioligand ([3H]PGD2) membrane binding assay", "experimental": "Example 15: In Vitro DP2/CRTH2 Binding Assay\nThe ability of Compound 1 to bind to the human DP2 receptor was assessed via a radioligand binding assay using [^3H]PGD2. HEK293 cells stably expressing recombinant human DP2 are resuspended in 10 mM Hepes, 7.4 containing 1 mM DTT, lysed and centrifuged at 75,000×g to pellet the membranes. The membranes are resuspended in 10 mM Hepes, 7.4 containing 1 mM DTT and 10% glycerol to approximately 5 mg protein/ml. […] The reactions are terminated by rapid filtration through Whatman GF/C glass fibre filter plates. The filter plates were pre-soaked in 0.33% polythylenimine for 30 minutes at room temperature then washed in Wash Buffer (50 mM Hepes, 0.5 M NaCl pH 7.4) prior to harvesting. After harvesting, the filter plates are washed 3 times with 1 ml cold Wash Buffer then dried. Scintillant is then added to the plates and the radioactivity retained on the filters is determined on a Packard TopCount (Perkin Elmer). Specific binding is determined as total radioactive binding minus non-specific binding in the presence of 10 μM PGD2. IC50s were determined using GraphPad prism analysis of drug titration curves. Mouse, rat and guinea pig DP2 receptors were also investigated.\nThe binding potency of Compound 1 is only slightly shifted in the presence of species-specific serum albumin."}, "[3]": {"assay": "Capsule formulation pharmacokinetics in male Beagle dogs", "format": "in vivo", "settings": "dog, fasted; for half-life: read-out: t1/2 24 hr (converted)", "experimental": "In a separate study, male Beagle dogs were dosed with the capsule formulations as described herein."}, "[4]": {"tested_on": "ovalbumin (OVA)-induced allergic rhinitis", "assay": "Mouse allergic rhinitis model", "format": "in vivo", "settings": "10 mg/kg PO daily", "experimental": "Example 18: Mouse Allergic Rhinitis Model\nCompound 2 was evaluated in a mouse model of ovalbumin (OVA)-induced allergic rhinitis in which nasal ovalbumin challenges to OVA-primed mice elicits an increase in sneezing and nasal rubs (Methods were adapted from those detailed in Nakaya, M., et al. 2006, Laboratory Investigation, 86:917-926). OVA-primed mice received an intranasal challenge of OVA daily for 5 consecutive days. The number of sneezes and nasal rubs were counted over an 8 minute recording session on days 1, 3 and 5 immediately following OVA challenge. OVA caused a significant increase in both sneezing behavior and nasal rubs when compared to intranasal phosphate buffered saline (PBS) challenge. […] The plasma exposure for Compound 1 measured in a satellite group was 1360 nM, 460 nM, 210 nM and 90 nM for time points 1, 2, 4, and 6 hr post-dose, respectively."}, "CYP2C9": {"biological_target": "CYP2C9 (Homo sapiens (Human), UniProt P11712)", "sequence (P11712 whole entry)": "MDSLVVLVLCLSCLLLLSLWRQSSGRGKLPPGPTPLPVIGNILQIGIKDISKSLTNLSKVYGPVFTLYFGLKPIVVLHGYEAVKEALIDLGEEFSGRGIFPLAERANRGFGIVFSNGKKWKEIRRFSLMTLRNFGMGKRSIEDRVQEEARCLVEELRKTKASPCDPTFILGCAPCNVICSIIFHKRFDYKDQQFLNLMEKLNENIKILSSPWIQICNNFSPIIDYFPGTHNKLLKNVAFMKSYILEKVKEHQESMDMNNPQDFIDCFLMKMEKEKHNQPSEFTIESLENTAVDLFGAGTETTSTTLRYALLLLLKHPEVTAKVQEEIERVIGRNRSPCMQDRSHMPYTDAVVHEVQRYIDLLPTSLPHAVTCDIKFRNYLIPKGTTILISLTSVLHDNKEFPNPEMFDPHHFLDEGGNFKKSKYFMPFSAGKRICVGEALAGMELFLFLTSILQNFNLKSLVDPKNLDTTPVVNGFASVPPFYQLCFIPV", "assay": "Extracellular cytochrome P450 inhibition (microsomes)", "format": "in vitro ADME", "settings": "2C9, diclofenac 4′-hydroxylation"}, "[5]": {"settings": "male, Beagle, in vivo, po, Capsule, 5.6 mg/kg"}, "[6]": {"settings": "male, Beagle, in vivo, po, EC-Capsule (L100-55), 5 mg/kg"}, "[7]": {"settings": "male, Beagle, in vivo, IV saline, 2 mg/kg"}}, "note": "Where a name gives a salt, the structure may show the parent alone. Read-outs that look alike come from different tables or passages of the source.", "data": [{"smiles": "COc1ccc(CC(=O)O)cc1Oc1ccc(NC(=O)C(C)(C)C)cc1CSC(C)(C)C", "note": "[Compound 1, 2-(3-(2-((tert-butylthio)methyl)-4-(2,2-dimethyl-propionylamino)phenoxy)-4-methoxyphenyl)acetic acid]", "values": [{"measurement": "induction of CYP3A4", "setting": "CYP3A4", "result": "not a strong inducer"}, {"measurement": "IC90", "setting": "DP2 receptor [1]", "result": 5.5, "unit": "nM"}, {"measurement": "IC50", "setting": "DP2 receptor [1]; average, 50 nM PGD2, read-out: IC50, PGD2-induced eosinophil shape change in human whole blood", "result": 1.5, "unit": "nM"}, {"measurement": "IC90", "setting": "DP2 receptor [1]; same value expressed in ng/mL", "result": 2.6, "unit": "ng/mL"}, {"measurement": "IC50", "setting": "DP2 receptor [1]; same value expressed in ng/mL, read-out: IC50, human ESC (converted)", "result": 1.52, "unit": "nM"}, {"measurement": "IC50", "setting": "DP2 receptor [2]; average, 0.2% species-specific albumin, read-out: IC50, radioligand membrane binding on human DP2", "result": 19.7, "unit": "nM"}, {"measurement": "IC50", "setting": "DP2 receptor [2]; average, without serum albumin, read-out: IC50, inhibition of radiolabeled PGD2 binding to human DP2", "result": 5.2, "unit": "nM"}, {"measurement": "IC50", "setting": "DP2 receptor [2]; in the presence of 0.5% serum albumin, read-out: IC50, binding to DP2", "result": 19.7, "unit": "nM"}]}, {"smiles": "COc1ccc(CC(=O)O)cc1Oc1ccc(NC(=O)C(C)(C)C)cc1CSC(C)(C)C", "note": "[Compound 2, 2-(3-(2-((tert-butylthio)methyl)-4-(2,2-dimethyl-propionylamino)phenoxy)-4-methoxyphenyl)acetic acid, sodium salt]", "values": [{"measurement": "CO", "setting": "[3]; IV saline, 2 mg/kg", "result": 10.3, "unit": "µg/mL"}, {"measurement": "ClPl", "setting": "[3]; IV saline, 2 mg/kg", "result": 5.0, "unit": "mL/min/kg"}, {"measurement": "AUC", "setting": "[3]; [5]", "result": 14300, "unit": "ng·h/mL"}, {"measurement": "Cmax", "setting": "[3]; [5]", "result": 4800, "unit": "ng/mL"}, {"measurement": "Tmax", "setting": "[3]; [5]", "result": 2.1, "unit": "h"}, {"measurement": "bioavailability", "setting": "[3]; [5]", "result": 78.6, "unit": "%"}, {"measurement": "half-life", "setting": "[3]; [5]", "result": 2.8, "unit": "h"}, {"measurement": "AUC", "setting": "[3]; [6]", "result": 20900, "unit": "ng·h/mL"}, {"measurement": "Cmax", "setting": "[3]; [6]", "result": 14400, "unit": "ng/mL"}, {"measurement": "Tmax", "setting": "[3]; [6]", "result": 1, "unit": "h"}, {"measurement": "bioavailability", "setting": "[3]; [6]", "result": 128, "unit": "%"}, {"measurement": "half-life", "setting": "[3]; [6]", "result": 2.4, "unit": "h"}, {"measurement": "AUC", "setting": "[3]; [7]", "result": 6500, "unit": "ng·h/mL"}, {"measurement": "Tmax", "setting": "[3]; [7]", "result": 0.1, "unit": "h"}, {"measurement": "Vd", "setting": "[3]; male, Beagle, in vivo, IV saline, 2 mg/kg, read-out: VDss", "result": 0.9, "unit": "L/kg"}, {"measurement": "half-life", "setting": "[3]; [7]", "result": 5.1, "unit": "h"}, {"measurement": "nasal responses (sneezes and nasal rubs) after OVA challenge", "setting": "[4]", "result": "significantly reduced"}, {"measurement": "IC50", "setting": "CYP2C9", "result": "> 50000", "unit": "nM"}]}]}
